Each structure is given as a SMILES string. Entries after “also recorded” stand apart in the source; their conditions may differ. Like-named read-outs stand apart in the source and are kept apart here.

Consider seven molecules from publication PMC2869246 (Antiviral research, 2010).

The conditions of series [1]: ref Reddy et al., 2008; cited from earlier work.
Series [2] in a line: Cytotoxicity by neutral red dye uptake in HepG2.2.15 cultures. As to conditions: human, HepG2.2.15 cells. The format is cell-based.
Series [3] deals with HBV. In words: HBV antiviral assay in HepG2.2.15 cells. The format is cell-based, hepatitis B virus. As to conditions: for effect of addition of 10uM mevalonate on anti-HBV effect: 10uM mevalonate added.
The subject of another series is HepG2.2.15. In words: Cytotoxicity by neutral red dye uptake in HepG2.2.15 cultures. The format is cell-based. As to conditions: Table 2; monotherapy; neutral red uptake 24 hours after last treatment.
In series [4] the test system is HBV. As to conditions: cited from earlier work; for anti-HBV activity: unpublished results.
The subject of the next series is HBV surface antigen. As to conditions: Hep3B cell line with integrated S gene coding region; ref Lin et al., 2003; cited from earlier work.
[5] abbreviates: Hepatitis B virus, HepG2.2.15, Table 2 (separate experiment), monotherapy.
Where [6] appears, read: Table 2 (separate experiment), monotherapy.

On to `Nc1ncnc2c1ncn2CCOCP(=O)(O)O` [ADV, adefovir], for which, in series [1], the liver/serum ratios was 0.38.
As usually defined, the CC50 is the concentration at which the toxic effect on the cells reaches its halfway point. The term EC50 denotes the concentration at which the effect is half-maximal. Higher therefore signals a need for much substance. A word on the EC90: it is the point of the concentration-response curve where the effect stands at 90%. A high value points to weaker potency. For the molecule `Nc1ccn([C@@H]2CS[C@H](CO)O2)c(=O)n1` [LMV, lamivudine], the CC50 at 9 days in series [2] was determined as 2.32 ± 0.102 mM. The “effect of addition of 10uM mevalonate on anti-HBV effect” value in the series on HBV [3] was “did not affect the anti-HBV effectiveness; also recorded: nor did it reduce the anti-HBV effectiveness”. In addition, in the series with HBV [3] (setting [5]), the concentration for a half-maximal effect (EC50) came to 48 ± 5 nM and the EC90 was determined as 0.146 ± 0.017 µM.
In turn, `CC(O)(CCO)CC(=O)O` (stereo not drawn) [Mevalonate] displayed a cytotoxic concentration (CC50) with HepG2.2.15 of over 10 µM. In the series on HBV [3] (setting [6]), this molecule had an EC50 of over 10000 nM and a concentration for an effect of 90% (EC90) of over 10 µM. Moreover, the anti-HBV effect result with HBV [3] (monotherapy) was “did not display an anti-HBV effect”.
Regarding `CCC(C)(C)C(=O)O[C@H]1C[C@@H](C)C=C2C=C[C@H](C)[C@H](CC[C@@H]3C[C@@H](O)CC(=O)O3)[C@H]21` [SIM, simvastatin], the CC50 at 9 days in series [2] is over 0.3 mM. The “effect of addition of 10uM mevalonate on anti-HBV effect” value in the series with HBV [3] is given as “abolished the anti-HBV effect; also recorded: abolished the anti-HBV effectiveness”. In addition, in the series with HBV [3] (setting [5]), a half-maximal effect (EC50) was put at 2800 ± 300 nM and the 90% effect level (EC90) was put at 8.1 ± 0.7 µM. The ED90 in the series on HBV [3] (SIM alone, cell culture) stood at 8.6 µM.
Turning to `CC(C)n1c(/C=C/C(O)CC(O)CC(=O)O)c(-c2ccc(F)cc2)c2ccccc21` (stereo not drawn) [fluvastatin], the anti-HBV activity result in the series on HBV [4] (ref Korba) is “unable to make other statins work against HBV”.
Take `CC[C@H](C)C(=O)O[C@H]1C[C@@H](C)C=C2C=C[C@H](C)[C@H](CC[C@@H]3C[C@@H](O)CC(=O)O3)[C@H]21` [lovastatin]: in the series on HBV [4] (ref Lin et al., 2003), the “anti-HBV activity (HBV virions in cell culture)” value was “unable to make other statins work against HBV; also recorded: could not demonstrate reduction of HBV virions”. In addition, the “in vitro production of surface antigen inhibited” value with HBV surface antigen is on record as 60%.
In the case of `CC[C@H](C)C(=O)O[C@H]1C[C@H](O)C=C2C=C[C@H](C)[C@H](CC[C@@H](O)C[C@@H](O)CC(=O)O)[C@H]21` [pravastatin], the anti-HBV activity entry in the series with HBV [4] (ref Bader) was “unable to make other statins work against HBV”.
